Source: patent publication US20260176284A1, “Compounds with Anti-KRAS Mutated Tumor Activity” (Trasveda Ltd., priority 2022, published 2026)

Legend:
[1] = system: KRAS-G12D mutated human colon carcinoma cells GP2d; assay: Antitumor effect, subcutaneous xenograft of KRAS-G12D mutated human colon carcinoma cells GP2d; format: in vivo; settings: BALB/c nude mice, 10 mg/kg, gavage, twice a day
Procedure: GP2d cells were purchased from Nanjing Kebai Biotechnology Co., Ltd. BALB/c nude mice, female, were purchased from Jiangsu GemPharmatech LLC. GP2d cells were cultured in culture medium containing DMEM and 10% FBS. The cells in the logarithmic growth phase were collected and resuspended in PBS to an appropriate concentration for subcutaneous tumor inoculation in mice. The experimental mice were subcutaneously inoculated on the right posterior side of the back. The inoculation dose of GP2d cells was 1×10^7 cells per mouse, and the cells were resuspended in a 1:1 mixture of PBS and Matrigel (the inoculation volume was 0.1 mL). When the average tumor volume grew to 150 mm^3, the mice were randomly grouped for administration according to the tumor size and body weight. Administration was started immediately after grouping, and the day of administration was regarded as day 0. The administration was carried out twice a day by gavage, at a dose of 10 mg/kg or a solvent control (0.5% Tween 80+99.5% of (0.5% MC (400 cp))). During the experiment, the body weight of the mice and the size of the tumors were measured twice a week.
The formula for calculating the tumor size: Tumor volume (mm^3)=0.5×(long diameter of tumor×(short diameter of tumor)^2).
Relative tumor inhibition rate TGI (%): TGI %=[1−(average tumor volume at the end of administration of the treatment group−average tumor volume at the beginning of administration of the treatment group)/(average tumor volume at the end of administration of the vehicle control group −average tumor volume at the beginning of administration of the vehicle control group)]×100%.

GP2D cells = assay: 3D proliferation inhibition of KRAS G12D mutated tumor cells, GP2D; format: cell-based, human; settings: Homo sapiens, GP2d, 3D methylcellulose culture, CTG, 120 hours
Source text: (§1) This experiment evaluated and verified the proliferation inhibitory activity of the representative compounds of the present invention against the following five strains of KRAS-related tumor cells.
(§2) The following materials, reagents and instruments were used in this experiment: Five strains of cells were all from Nanjing Kebai Biotechnology Co., Ltd. (GP2D, CBP60010; HPAC, CBP60539; AsPC-1, CBP60546; KP-4, CBP60541; Panc 04.03, CBP60683); DMEM (Gibco, 11965092); RPMI-1640 (Gibco, SH30809.01); HPAC complete medium (Cobioer, CBP60539M); Fetal bovine serum FBS (Gibco, 10091-148); Insulin (Gibco, 41400045); Methylcellulose (methylcellulose, Sigma, 9004-67-5); Phosphate-buffered saline DPBS (Comning, 21-031-CVC); CellTiter-Glo® Luminescent Cell Viability Assay (Promega, Cat #G7573); 96-well clear flat-bottom black-wall plate (Corning, 3603); EnVision multilabel plate reader (PerkinElmer #2105); CO2 incubator (Thermo Scientific, Model 3 71 Series).
(§3) A sterilized 1% methylcellulose 3D culture medium was prepared in advance. The cells in the logarithmic growth phase were harvested, and a Countstar automatic cell counter based on the principle of the classic trypan blue staining method was used for cell counting and detecting cell viability to ensure that the cell viability was above 90%. The cell concentrations of GP2D, HPAC, AsPC-1, KP-f4, and Panc 04.03 were adjusted so that the final concentration of methylcellulose was 0.65%, and the mixture was allowed to stand after being well-mixed. After there were no visible air bubbles in the cell suspension, 80 μL of the cell suspension was added to each well of a 96-well plate, with a total of 1000-2000 cells. The cells in the 96-well plate were cultured overnight at 37° C., 5% CO2, and 95% humidity.
(§4) Drug Preparation for IC50 Determination: First, a 10 mM DMSO stock solution of each compound was prepared. For the first dilution, using DMSO as the solvent, each compound was first diluted to 5 mM and then serially diluted 3-fold to obtain 9 concentrations, preparing DMSO solutions of each compound at different concentrations. For the second dilution, a 5-fold diluted solution of each compound was prepared by a 1:100 dilution, using the complete medium as the solvent. […]
(§5) The cells in the 96-well plate with the added drugs were further cultured at 37° C. and 5% CO2 for 120 hours, and then a CTG analysis was performed. […] The cell plate was placed at room temperature for 20 minutes to stabilize the luminescence signal. The luminescence value was read, and the data were collected.
(§6) The data were analyzed using GraphPad Prism 9.0 software. Non-linear S-curve regression was used to fit the data to obtain the dose-response curve, and the IC50 value (nM) was calculated accordingly. […]

HPAC cells = assay: 3D proliferation inhibition of KRAS G12D mutated tumor cells, HPAC; format: cell-based, human; settings: Homo sapiens, HPAC, 3D methylcellulose culture, CTG, 120 hours
Source text: as §1, §2, §3, §4, §5, §6

AsPC-1 cells = assay: 3D proliferation inhibition of KRAS G12D mutated tumor cells, AsPC-1; format: cell-based; settings: Homo sapiens, ASPC1, 3D methylcellulose culture, CTG, 120 hours
Source text: as §1, §2
as §3, with “After there were no visible air bubbles in the cell suspension, 80 μL of the cell suspension was added to each well of a 96-well plate, with a total of 1000-2000 cells. The cells in the 96-well plate were cultured overnight at 37° C., 5% CO2, and 95% humidity.” left out
as §5, §6

KP-4 cells = assay: 3D proliferation inhibition of KRAS G12D mutated tumor cells, KP-4; format: cell-based; settings: Homo sapiens, KP-4, 3D methylcellulose culture, CTG, 120 hours
Source text: as §1, §2, §3, §4, §5, §6

Panc 04.03 cells = assay: 3D proliferation inhibition of KRAS G12D mutated tumor cells, Panc 04.03; format: cell-based; settings: Homo sapiens, Panc 04.03, 3D methylcellulose culture, CTG, 120 hours
Source text: as §1, §2, §3, §4, §5, §6

[2] = system: KRAS G12D mutated AGS human gastric adenocarcinoma cells; assay: Proliferation inhibition of KRAS G12D mutant AGS cells, another experiment with similar protocol (includes MRTX1133); format: cell-based; settings: Homo sapiens
Procedure: In another experiment, using a protocol similar to the one described above, the inhibitory activity of some representative compounds of the present invention against KRAS G12D mutated AGS human gastric adenocarcinoma cells was determined.
The synthesis of compound MRTX1133 was performed according to the method described in J. Med. Chem. 2022, 65, 4, 3123-3133.

[3] = Mouse pharmacokinetics (IV and PO); format: in vivo; settings: 10 mg/kg, male CD-1 mice, PO (gavage), 1 mg/mL at 10 mL/kg, plasma
Procedure: The pharmacokinetic properties of the compounds of the present invention were evaluated through a mouse pharmacokinetic experiment.
Male CD-1 mice, aged 6-8 weeks old, were purchased from Zhejiang Vital River Laboratory Animal Co., Ltd.
IV administration group: The compound was formulated into a sodium acetate buffer solution (10 mM sodium acetate solution, adjusted to pH 4.0 with acetic acid) containing 20% Captisol (sulfobutyl β-cyclodextrin) so that the final concentration of each compound was 0.6 mg/mL. The drug formulation was injected into the tail vein of CD-1 mice at an injection volume of 5 mL/kg. After administration, blood samples were collected from the submandibular vein or by other appropriate methods at 5 min, 15 min, 30 min, 1 h, 2 h, 4 h, 6 h, 8 h, and 24 h. The blood samples were centrifuged at a low temperature for 6 minutes, and the plasma was collected and stored at −80° C. for testing. The PO administration group formulated the compound into a solvent of 0.5% Tween 80+99.5% (0.5% MC (400 cp)) or 5% DMSO+95% (0.5% MC (400 cp)) so that the final concentration of each compound was 1 mg/mL. The drug formulation was administered to CD-1 mice by gavage at a volume of 10 mL/kg. After administration, blood samples were collected from the submandibular vein or by other appropriate methods at 15 min, 30 min, 1 h, 2 h, 4 h, 6 h, 8 h, and 24 h. The blood samples were centrifuged at a low temperature for 6 minutes, and the plasma was collected and stored at −80° C. for testing.
10 μL of the plasma sample was taken, and 200 μL of methanol containing an internal standard was added as a precipitating agent to precipitate plasma proteins and extract the compounds to be tested in the plasma. After centrifugation at a low temperature, 10 μL of the supernatant was injected, and the drug blood concentration was analyzed by LC-MS/MS. The pharmacokinetic parameters were calculated using Winnonlin based on the drug concentration data at different time points.

[4] = system: human pancreatic cancer cells HPAC (carrying KRas G12D mutant protein); assay: In vivo pharmacodynamics, subcutaneous xenograft of human pancreatic cancer cells HPAC; settings: NOD/SCID mice, 50 mpk, PO
Procedure: The following materials were used in this experiment: NOD/SCID mice, 6-8 weeks old, female, Jiangsu Ji Cai Yao Kang Biotechnology Co., Ltd.; HPAC cells (carrying KRas G12D mutant protein, ATCC); Captisol (Wuhan Fengyao Tonghui Chemical Products Co., Ltd., Cas #182410-00-0); Sodium acetate (aladdin); MC (sigma, 9004-67-5).
The experiment was carried out as follows: Female NOD/SCID mice aged 6-8 weeks were subcutaneously inoculated with 1-10^7 HPAC cells on the right posterior side of the back, with an inoculation volume of 0.1 mL. When the tumors grew to an average volume of 150 mm^3, the mice were randomly grouped for administration according to the tumor size and body weight. The day of administration was regarded as day 0. The administration was carried out once a day. The test compound was administered by tail vein injection or gavage, with 5 mice in each group at a dose of 10 mg/kg. The control group was administered with an equal volume of the solvent control by tail vein injection or gavage.
During the experiment, the tumor volume and body weight were measured twice a week. The formula for calculating the tumor volume was: Tumor volume (mm^3)=0.5×(tumor major axis×tumor minor axis^2). The average tumor inhibition rate TGI %=[(average tumor volume of the control group−average initial tumor volume of the control group)−(average tumor volume of the administration group−average initial tumor volume of the administration group)]/(average tumor volume of the control group−average initial tumor volume of the control group).

Row | SMILES | Tumor volume (mm3) (Day 21) [1] | TGI (%) ([1]; Day 21) | IC50 (GP2D cells) [nM] | IC50 (HPAC cells) [nM] | IC50 (AsPC-1 cells) [nM] | IC50 (KP-4 cells) [nM] | IC50 (Panc 04.03 cells) [nM] | IC50 [2] [nM] | AUC(0-inf) [3] [ng·h/mL] | AUC(0-t) [3] [ng·h/mL] | half-life [3] [h] | Tumor volume (mm3) (Day 20) ([4]; BID × 21) | TGI (%) ([4]; BID × 21, Day 20)
1 | [2H]C([2H])([2H])N1CC[C@H](C(F)F)[C@](C)(C([2H])([2H])Oc2nc(N3CC4CCC(C3)N4)c3cc(C(F)(F)F)c(-c4cccc5sc(N)c(C#N)c45)c(F)c3n2)C1 (single isomer, unassigned) [Example 321-1] | 70 | 109 | 0.43 | 5.38 | 1.38 | 4.74 | 1.36 | – | – | – | – | – | –
2 | C#Cc1c(F)ccc2cc(O)cc(-c3ncc4c(N5C[C@H]6CC[C@@H](C5)N6)nc(OC[C@]5(C)CN(C)CC/C5=C\F)nc4c3F)c12 [Example 103, 4-(4-((1R,5S)-3,8-diazabicyclo[3.2.1]octan-3-yl)-8-fluoro-2-(((S,E)-4-(fluoromethylene)-1,3-dimethylpiperidin-3-yl)methoxy)pyrido[4,3-d]pyrimidin-7-yl)-5-ethynyl-6-fluoronaphthalen-2-ol] | – | – | 0.42 | 1.44 | 2.09 | 6.92 | 2.12 | 4 | 704 | 653 | 8.15 | 77 | 112
